Results from patent publication US4436751A, “Nitrobenzyl monates antibacterial compounds” (Beecham Group Limited, priority 1980, dated 1984).
Values after ≈ are worked out from the molar mass of the structure shown. Like-named read-outs stand apart in the source and are kept apart here.

Experiments:
Assay type in all cases: cell-based
M. pneumoniae ATCC 15492 = experiment: Anti-mycoplasmal MIC in vitro, Friis broth agarose (Table 1); conditions: Mycoplasmoides pneumoniae, ATCC15492, 144 h
[1] = system: Treponema hyodysenteriae B10; experiment: MIC against Treponema hyodysenteriae, horse blood agar (Table 4); conditions: Brachyspira hyodysenteriae, 48 h; strain B10; 2 days 37° C. anaerobic; read-out: Minimum Inhibitory Concentration (MIC), inhibition of β-haemolysis
Experimental: (§1) The value were obtained by the following method: The compound was incorporated in horse blood agar, inoculated (multi-point)with 0.001 ml of a 3 day growth of the test organism from base of a blood slope (+1 ml foetal calf serum) and incubated at 37° C. for 2 days under anaerobic conditions. The MIC was taken as the lowest concentration to inhibit β-haemolysis.

[2] = system: Treponema hyodysenteriae Navis; experiment: as above; conditions: Brachyspira hyodysenteriae, 48 h; strain Navis; 2 days 37° C. anaerobic; read-out: Minimum Inhibitory Concentration (MIC), inhibition of β-haemolysis
Experimental: as §1

[3] = system: Treponema hyodysenteriae P23; experiment: as above; conditions: Brachyspira hyodysenteriae, 48 h; strain P23; 2 days 37° C. anaerobic; read-out: Minimum Inhibitory Concentration (MIC), inhibition of β-haemolysis
Experimental: as §1

[4] = system: Treponema hyodysenteriae S77/10; experiment: as above; conditions: Brachyspira hyodysenteriae, 48 h; strain S77/10; 2 days 37° C. anaerobic; read-out: Minimum Inhibitory Concentration (MIC), inhibition of β-haemolysis
Experimental: as §1

[5] = system: Treponema hyodysenteriae S77/2; experiment: as above; conditions: Brachyspira hyodysenteriae, 48 h; strain S77/2; 2 days 37° C. anaerobic; read-out: Minimum Inhibitory Concentration (MIC), inhibition of β-haemolysis
Experimental: as §1

bacteria = experiment: Antibacterial activity (summary); conditions: in words
Experimental: The values were determined using a two fold serial dilutions in Diagnostic Sensitivity Test Agar with an inoculum of 10^4 organisms and incubation for 18 hours at 37° C.
(§2) The values were determined by serial dilutions in nutrient agar with 5% chocolated horse blood after incubations for 18 hours at 37° C.

M1 -suiphneumoniae = experiment: Anti-mycoplasmal activity relative to O-nitrobenzyl monate A
mycoplasma organisms = experiment: Anti-mycoplasmal activity (summary); conditions: in words
Experimental: The values were determines in Friis broth solidified with 0.9% agarose. The inoculum was 10^3 to 10^5 C.F.U. and the MIC's were recorded after 6 days incubation at 37° C.

[6] = system: Haemophilus influenzae Wy21; experiment: Human bacteria MIC, nutrient agar with chocolated horse blood (Table 3); conditions: nutrient agar 5% chocolated horse blood, 18 hours 37° C.
Experimental: as §2

[7] = M. pneumoniae ATCC 15492, in vitro, 6 days 37° C., read-out: MIC

Compound: C/C(=C\C(=O)OCc1ccccc1[N+](=O)[O-])CC1OCC(CC2OC2C(C)C(C)O)C(O)C1O (stereo not drawn) [C, O--nitrobenzyl monate A, reference compound]
- MIC (M. pneumoniae ATCC 15492; [7]): 5 µg/mL (≈ 10.4 µM)

Compound: C/C(=C\C(=O)OCc1ccc([N+](=O)[O-])cc1)CC1OCC(CC2OC2C(C)C(C)O)C(O)C1O (stereo not drawn) [Example 1, p-nitrobenzyl monate A]
- MIC (M. pneumoniae ATCC 15492; [7]): 0.1 µg/mL (≈ 0.209 µM)
- MIC [1]: 2.5 µg/mL (≈ 5.21 µM)
- MIC [2]: 2.5 µg/mL (≈ 5.21 µM)
- MIC [3]: 2.5 µg/mL (≈ 5.21 µM)
- MIC [4]: 2.5 µg/mL (≈ 5.21 µM)
- MIC [5]: 2.5 µg/mL (≈ 5.21 µM)
- antibacterial activity as compared to o-nitrobenzyl monate A (bacteria): outstanding antibacterial activity

Compound: C/C(=C\C(=O)OCc1cccc([N+](=O)[O-])c1)CC1OCC(CC2OC2C(C)C(C)O)C(O)C1O (stereo not drawn) [Example 2, m-nitrobenzyl monate A]
- MIC (M. pneumoniae ATCC 15492; [7]): 1 µg/mL (≈ 2.09 µM)
- times more active than O-nitrobenzyl monate A (M1 -suiphneumoniae): approximately 20 times
- anti-mycoplasmal activity (mycoplasma organisms): outstanding anti-mycoplasmal activity

Compound: C/C(=C\C(=O)OC(C)c1cccc([N+](=O)[O-])c1)CC1OCC(CC2OC2C(C)C(C)O)C(O)C1O (stereo not drawn) [Example 3, 1-(m-nitrophenyl)ethyl monate A]
- MIC (M. pneumoniae ATCC 15492): 5 µg/mL (≈ 10.1 µM)

Compound: C/C(=C\C(=O)OC(C)c1ccc([N+](=O)[O-])cc1)CC1OCC(CC2OC2C(C)C(C)O)C(O)C1O (stereo not drawn) [Example 4, 1-(p-nitrophenyl)ethyl monate A]
- MIC (M. pneumoniae ATCC 15492; [7]): 10 µg/mL (≈ 20.3 µM)

Compound: C/C(=C\C(=O)OCc1cc([N+](=O)[O-])cc([N+](=O)[O-])c1)CC1OCC(CC2OC2C(C)C(C)O)C(O)C1O (stereo not drawn) [Example 6, 3,5-dinitrobenzyl monate A]
- MIC (M. pneumoniae ATCC 15492): 2.5 µg/mL (≈ 4.77 µM)
- MIC [6]: 0.5 µg/mL (≈ 0.953 µM)

Compound: C/C(=C\C(=O)OCc1cc([N+](=O)[O-])cc([N+](=O)[O-])c1C)CC1OCC(CC2OC2C(C)C(C)O)C(O)C1O (stereo not drawn) [Example 7, 3,5-dinitro-2-methylbenzyl monate A]
- MIC (M. pneumoniae ATCC 15492): 2.5 µg/mL (≈ 4.64 µM)
- MIC [6]: 1 µg/mL (≈ 1.86 µM)

Compound: C/C(=C\C(=O)OCc1ccc([N+](=O)[O-])c([N+](=O)[O-])c1)CC1OCC(CC2OC2C(C)C(C)O)C(O)C1O (stereo not drawn) [Example 9, 3,4-dinitrobenzyl monate A]
- MIC [6]: 0.25 µg/mL (≈ 0.477 µM)

Compound: C/C(=C\C(=O)OCc1ccc([N+](=O)[O-])cc1[N+](=O)[O-])CC1OCC(CC2OC2C(C)C(C)O)C(O)C1O (stereo not drawn) [Example 10, 2,4-dinitrobenzyl monate A]
- MIC (M. pneumoniae ATCC 15492): 2.5 µg/mL (≈ 4.77 µM)
- MIC [6]: 0.5 µg/mL (≈ 0.953 µM)

Compound: C/C(=C\C(=O)OCc1ccc([N+](=O)[O-])cc1Cl)CC1OCC(CC2OC2C(C)C(C)O)C(O)C1O (stereo not drawn) [Example 11, 2-chloro-4-nitrobenzyl monate A]
- MIC (M. pneumoniae ATCC 15492): 2.5 µg/mL (≈ 4.86 µM)
